Source: patent publication US8383629B2, “Inhibitors of 11β-hydroxysteroid dehydrogenase type 1” (Vitae Pharmaceuticals, Inc., priority 2008, dated 2013)

Target: T1, human 11β-HSD1 (Homo sapiens, UniProt P28845)
T1 construct: expressed in transfected cells; host or cells: CHO cells (microsomes)
Test: Inhibition of microsomal preparation of 11β-HSD1 (SPA, Biological Test Example 1)
Format: biochemical
Details: for inhibition at 0.111 µM: 111 nM; for IC50: microsomes from CHO cells overexpressing human 11β-HSD1, read-out: IC50 Range
How it was run: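 Microsomes from CHO cells overexpressing human 11β-HSD1 reduced [3H]cortisone (160 nM in substrate solution, with 2 mM NADPH, HEPES pH 7.4) for 90 min at rt after a 10 min compound preincubation. Compounds were run as 8-point half-log DMSO dilutions from 0.1 mM. 18β-glycyrrhetinic acid stopped the reaction, and anti-cortisol antibody SPA beads read [3H]cortisol.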

T1 sequence (P28845 whole entry): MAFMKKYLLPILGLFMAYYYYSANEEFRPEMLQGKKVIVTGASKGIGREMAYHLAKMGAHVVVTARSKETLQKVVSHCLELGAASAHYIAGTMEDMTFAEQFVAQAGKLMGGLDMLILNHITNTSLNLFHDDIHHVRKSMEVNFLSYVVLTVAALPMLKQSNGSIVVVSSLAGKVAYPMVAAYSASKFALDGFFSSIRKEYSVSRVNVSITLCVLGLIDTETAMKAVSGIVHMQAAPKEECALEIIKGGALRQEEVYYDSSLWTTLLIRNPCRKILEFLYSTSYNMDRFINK

Row | Compound | inhibition at 0.111 µM | IC50
1 | O=C(O)CC1CC2(CCN(C(=O)NCc3ccccc3C(F)(F)F)CC2)c2c(Br)cccc21 (centres unmarked) [EXAMPLE 94, 2-(7-bromo-1′-(2-(trifluoromethyl)benzylcarbamoyl)-2,3-dihydrospiro[indene-1,4′-piperidine]-3-yl)acetic acid] | 75.7% | < 100 nM
2 | CCOC(=O)CC1CC2(CCN(C(=O)NCc3ccccc3OC(C)C)CC2)c2c(Br)cccc21 (centres unmarked) [EXAMPLE 95, Ethyl 2-(7-bromo-1′-(2-isopropoxybenzylcarbamoyl)-2,3-dihydrospiro[indene-1,4′-piperidine]-3-yl)acetate] | 19.9% | 100 to 1000 nM
3 | O=C(O)CC1CC2(CCN(C(=O)NCc3ccccc3N3CCCC3)CC2)c2c(Br)cccc21 (centres unmarked) [EXAMPLE 96, 2-(7-bromo-1′-(2-(pyrrolidin-1-yl)benzylcarbamoyl)-2,3-dihydrospiro[indene-1,4′-piperidine]-3-yl)acetic acid] | 48.9% | 100 to 1000 nM
4 | CS(=O)(=O)c1ccccc1CNC(=O)N1CCC2(CC1)CC(CC(=O)O)c1cccc(Br)c12 (centres unmarked) [EXAMPLE 97, 2-(7-bromo-1′-(2-(methylsulfonyl)benzylcarbamoyl)-2,3-dihydrospiro[indene-1,4′-piperidine]-3-yl)acetic acid] | 5.6% | 100 to 1000 nM
5 | CC(C)Oc1ccccc1CNC(=O)N1CCC2(CC1)CC(CC(=O)O)c1cccc(Br)c12 (centres unmarked) [EXAMPLE 98, 2-(7-bromo-1′-(2-isopropoxybenzylcarbamoyl)-2,3-dihydrospiro[indene-1,4′-piperidine]-3-yl)acetic acid] | 48.2% | < 100 nM
6 | O=C1CC2(CCN(C(=O)NCc3ccccc3OC(F)(F)F)CC2)c2c(Br)cccc21 [EXAMPLE 99, 7-bromo-3-oxo-N-(2-(trifluoromethoxy)benzyl)-2,3-dihydrospiro[indene-1,4′-piperidine]-1′-carboxamide] | 75.6% | < 100 nM
7 | CN1C(=O)c2cccc(Cl)c2C12CCN(C(=O)NCc1ccccc1C(F)(F)F)CC2 [EXAMPLE 100, 7-chloro-2-methyl-3-oxo-N-(2-(trifluoromethyl)benzyl)spiro[isoindoline-1,4′-piperidine]-1′-carboxamide] | 46.8% | 100 to 1000 nM
8 | CCOC(=O)CC1CC2(CCN(C(=O)N(C)Cc3ccccc3C(F)(F)F)CC2)c2c(Br)cccc21 (centres unmarked) [EXAMPLE 101, Ethyl 2-(7-bromo-1′-(methyl(2-(trifluoromethyl)benzyl)carbamoyl)-2,3-dihydrospiro[indene-1,4′-piperidine]-3-yl)acetate] | 42.6% | 100 to 1000 nM
9 | CN(Cc1ccccc1C(F)(F)F)C(=O)N1CCC2(CC1)CC(CC(=O)O)c1cccc(Br)c12 (centres unmarked) [EXAMPLE 102, 2-(7-bromo-1′-(methyl(2-(trifluoromethyl)benzyl)carbamoyl)-2,3-dihydrospiro[indene-1,4′-piperidine]-3-yl)acetic acid] | 64.4% | < 100 nM
10 | CCOC(=O)CC1CC2(CCN(C(=O)N(C)Cc3ccccc3F)CC2)c2c(Br)cccc21 (centres unmarked) [EXAMPLE 103, Ethyl 2-(7-bromo-1′-((2-fluorobenzyl)(methyl)carbamoyl)-2,3-dihydrospiro[indene-1,4′-piperidine]-3-yl)acetate] | 79.4% | < 100 nM
11 | CN(Cc1ccccc1F)C(=O)N1CCC2(CC1)CC(CC(=O)O)c1cccc(Br)c12 (centres unmarked) [EXAMPLE 104, 2-(7-bromo-1′((2-fluorobenzyl)(methyl)carbamoyl)-2,3-dihydrospiro[indene-1,4′-piperidine]-3-yl)acetic acid] | 88.7% | < 100 nM
12 | O=C1CC2(CCN(C(=O)OCc3ccccc3C(F)(F)F)CC2)c2c(Br)cccc21 [EXAMPLE 105, 2-(trifluoromethyl)benzyl 7-bromo-3-oxo-2,3-dihydrospiro[indene-1,4′-piperidine]-1′-carboxylate] | 82.3% | < 100 nM
13 | O=C1CC2(CCN(C(=O)COc3ccccc3C(F)(F)F)CC2)c2c(Br)cccc21 [EXAMPLE 106, 7-bromo-1′-(2-(2-(trifluoromethyl)phenoxy)acetyl)spiro[indene-1,4′-piperidin]-3(2H)-one] |  | < 100 nM
14 | O=C1CC2(CCN(C(=O)CNc3ccccc3C(F)(F)F)CC2)c2c(Br)cccc21 [EXAMPLE 107] |  | 100 to 1000 nM
